From patent US20130090385A1, “NOVEL SPECIFIC CASPASE-10 INHIBITORS” (MERCK PATENT GESELLSCHAFT MIT BESCHRANKTER HAFTUNG, priority 2005, published 2013)
Like-named read-outs stand apart in the source and are kept apart here. Where a SMILES comes first, the peptide text is derived from it. The star is where a group is joined. Cbz = O=C(OCc1ccccc1)*; CH2F = FC*

Columns and labels:
[1] = target: T1, Recombinant human caspase-2 (Homo sapiens, UniProt P42575); assay: delayed-time fluorescence caspase inhibition test, caspase-2
T1 sequence (P42575 1-452): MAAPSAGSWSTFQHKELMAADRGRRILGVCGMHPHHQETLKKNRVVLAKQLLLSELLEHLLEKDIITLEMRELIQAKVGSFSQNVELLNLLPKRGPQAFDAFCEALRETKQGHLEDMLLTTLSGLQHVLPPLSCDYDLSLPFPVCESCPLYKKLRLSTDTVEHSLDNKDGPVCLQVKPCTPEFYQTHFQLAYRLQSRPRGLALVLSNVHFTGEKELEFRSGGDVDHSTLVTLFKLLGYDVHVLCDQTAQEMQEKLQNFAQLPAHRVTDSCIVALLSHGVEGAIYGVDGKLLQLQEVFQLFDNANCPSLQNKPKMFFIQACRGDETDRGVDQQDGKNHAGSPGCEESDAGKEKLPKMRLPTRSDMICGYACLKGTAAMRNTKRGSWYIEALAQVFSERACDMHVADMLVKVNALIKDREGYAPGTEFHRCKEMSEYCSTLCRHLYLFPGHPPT
Description: (§1) The substrate used is a tetrapeptide specific to this caspase, having at one of its ends a fluorescent europium marker (W1284) and at the other end a europium chelate fluorescence quencher (QSy-7): Eu-W1284-CIETDK-QSy-7.
(§2) The caspase cleaves the substrate, releasing the quencher. Thus, by excitation at 340 nm, the signal emitted by the fluorescence of the europium is read by WALLAC Victor^2 reader at 615 nm.
(§3) They are ready for use or may be divided into aliquots and stored at −80° C.. […] 20 μl of this solution are distributed per well of the assay plate. […] The assay is performed with 1 U of enzyme per well, by distributing 20 μl of the diluted solution per well. • The standard inhibitors: The standard inhibitors are dissolved in DMSO to a concentration of 10 mM. They are tested at IC20 and at IC50 on the caspases they inhibit (see following table).
(§4) They are then distributed in the wells using this solution to reach the final concentration of IC20 or IC50, i.e. 3 μl in 33 μl of final reaction volume (dilution 1/11). Thus, the final concentration of DMSO in the well is 0.3% (v/v) final. […] An intermediate dilution (1/6.6) is prepared in DMSO by diluting 10 μl of the concentrated solution in 66 μl of DMSO (final volume). […] The inhibitors are then distributed in the wells to reach the final screening concentration (10 μM), i.e. 3 μl in 33 μl of final reaction volume (dilution 1/11) and a final concentration of DMSO of 0.3% (v/v) in the well. • Protocol:
(§5) The incubation takes place for 3 hours 30 minutes at room temperature before reading the fluorescence in delayed time on the WALLAC Victor^2 reader with the filters corresponding to the fluorescence of europium (excitation filter: 340 nm, emission filter: 615 nm).
(§6) The inhibitors are diluted using solutions with concentrations of less than 20 mM in DMSO, and then prediluted in the caspase buffer. […] The specificity factor for caspase-10 is calculated as the following ratio:

[2] = target: T2, Recombinant human caspase-3 (Homo sapiens, UniProt P42574); assay: delayed-time fluorescence caspase inhibition test, caspase-3
T2 sequence (P42574 29-277): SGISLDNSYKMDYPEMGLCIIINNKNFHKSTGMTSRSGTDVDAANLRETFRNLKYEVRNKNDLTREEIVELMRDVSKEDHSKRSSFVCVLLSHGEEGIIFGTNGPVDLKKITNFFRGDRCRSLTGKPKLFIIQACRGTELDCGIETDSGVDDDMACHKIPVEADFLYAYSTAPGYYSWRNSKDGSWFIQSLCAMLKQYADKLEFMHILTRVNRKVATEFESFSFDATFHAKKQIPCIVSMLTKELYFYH
Description: as §1, §2
20 μl of this solution are distributed per well of the assay plate. […] The assay is performed with 1 U of enzyme per well, by distributing 20 μl of the diluted solution per well. • The standard inhibitors: The standard inhibitors are dissolved in DMSO to a concentration of 10 mM. They are tested at IC20 and at IC50 on the caspases they inhibit (see following table). The concentrations mentioned in the table are the final concentrations in the assay wells.
as §4
The volumes and the protocol were optimised for automated use.
as §5
The inhibitors are diluted using solutions with concentrations of less than 20 mM in DMSO, and then prediluted in the caspase buffer.

[3] = target: T3, Recombinant human caspase-6 (Homo sapiens, UniProt P55212); assay: delayed-time fluorescence caspase inhibition test, caspase-6
T3 sequence (P55212 24-293): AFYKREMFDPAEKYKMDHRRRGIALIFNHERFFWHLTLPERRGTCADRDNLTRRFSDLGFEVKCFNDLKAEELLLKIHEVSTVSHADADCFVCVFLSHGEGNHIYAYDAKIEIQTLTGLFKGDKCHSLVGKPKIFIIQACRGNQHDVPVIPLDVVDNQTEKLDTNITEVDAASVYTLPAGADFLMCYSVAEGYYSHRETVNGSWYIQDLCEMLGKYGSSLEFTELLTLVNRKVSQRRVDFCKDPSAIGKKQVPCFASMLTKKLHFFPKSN
Description: as §1, §2, §3, §4, §5, §6

[4] = target: T4, Recombinant human caspase-9 (Homo sapiens, UniProt P55211); assay: delayed-time fluorescence caspase inhibition test, caspase-9
T4 sequence (P55211 1-416): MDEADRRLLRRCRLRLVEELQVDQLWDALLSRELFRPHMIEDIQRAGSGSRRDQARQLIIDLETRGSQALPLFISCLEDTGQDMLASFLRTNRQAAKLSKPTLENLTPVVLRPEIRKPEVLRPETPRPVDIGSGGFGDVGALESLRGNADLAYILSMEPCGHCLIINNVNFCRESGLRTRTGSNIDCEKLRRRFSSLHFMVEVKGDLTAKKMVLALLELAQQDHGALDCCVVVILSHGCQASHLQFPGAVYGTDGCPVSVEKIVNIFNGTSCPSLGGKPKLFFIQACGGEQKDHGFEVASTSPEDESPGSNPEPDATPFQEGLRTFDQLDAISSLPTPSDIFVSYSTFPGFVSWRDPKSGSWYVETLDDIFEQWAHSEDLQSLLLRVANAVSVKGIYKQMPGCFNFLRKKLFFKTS
Description: as §1, §2, §3, §4, §5, §6

[5] = target: Recombinant human caspase-8 (Homo sapiens, UniProt Q14790); assay: delayed-time fluorescence caspase inhibition test, caspase-8
Recombinant human caspase-8, sequence (Q14790 217-479): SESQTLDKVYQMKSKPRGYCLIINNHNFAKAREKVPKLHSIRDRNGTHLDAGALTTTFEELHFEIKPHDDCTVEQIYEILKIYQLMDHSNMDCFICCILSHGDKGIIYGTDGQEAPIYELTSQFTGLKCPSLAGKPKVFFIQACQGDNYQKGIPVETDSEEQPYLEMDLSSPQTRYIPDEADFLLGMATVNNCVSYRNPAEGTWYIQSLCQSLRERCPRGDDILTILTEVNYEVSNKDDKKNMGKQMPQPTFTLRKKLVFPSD
Description: as §1, §2, §3, §4, §5, §6

[6] = target: T5, Recombinant human caspase-10 (Homo sapiens, UniProt Q92851); assay: delayed-time fluorescence caspase inhibition test, caspase-10
T5 sequence (Q92851 220-521): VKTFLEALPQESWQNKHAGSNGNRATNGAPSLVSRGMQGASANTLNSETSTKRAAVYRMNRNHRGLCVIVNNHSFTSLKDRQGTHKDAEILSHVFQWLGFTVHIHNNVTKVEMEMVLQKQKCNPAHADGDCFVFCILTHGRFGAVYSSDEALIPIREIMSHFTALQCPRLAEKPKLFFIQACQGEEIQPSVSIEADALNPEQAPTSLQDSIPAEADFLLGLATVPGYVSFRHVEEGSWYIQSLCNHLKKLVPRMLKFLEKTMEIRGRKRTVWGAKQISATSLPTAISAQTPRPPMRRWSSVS
Description: as §1, §2, §3, §4, §5, §6

[7] = read-out: IC20 of standard inhibitor
[8] = read-out: Inhibition IC50 Caspase-2, tested 100 nM to 200 μM, 1% DMSO, 3 h 30 min at room temperature
[9] = read-out: Inhibition IC50 Caspase-3, tested 100 nM to 200 μM, 1% DMSO, 3 h 30 min at room temperature
[10] = read-out: Inhibition IC50 Caspase-6, tested 100 nM to 200 μM, 1% DMSO, 3 h 30 min at room temperature
[11] = read-out: Inhibition IC50 Caspase-9, tested 100 nM to 200 μM, 1% DMSO, 3 h 30 min at room temperature
[12] = read-out: Inhibition IC50 Caspase-8, tested 100 nM to 200 μM, 1% DMSO, 3 h 30 min at room temperature
[13] = read-out: Inhibition IC50 Caspase-10, tested 100 nM to 200 μM, 1% DMSO, 3 h 30 min at room temperature

Structure (SMILES)	IC50 [1] [µM]	IC50 [2] [µM]	IC50 [3] [µM]	IC50 [4] [µM]	IC50 [5] [µM]	IC50 [6] [µM]	other results
O=S(=O)(NCC1(Cc2ccc(CCOCC3CC3)cc2)CCC1)c1ccc(Cl)cc1Cl [Example 1, 2,4-Dichloro-N-[(1-{4-[2-(cyclopropylmethoxy)ethyl]benzyl}cyclobutyl)methyl]benzenesulfonamide]	> 200	> 200	> 200	> 200	> 200	0.22	
CS(=O)(=O)CCc1ccc(CC2(CNS(=O)(=O)c3cccc4ccccc34)CCC2)cc1 [Example 30, N-[(1-{4-[2-(methylsulfonyl)ethyl]benzyl}cyclobutyl)methyl]naphthalene-1-sulfonamide]	> 200	> 200	> 200	> 200	> 200	4.46	
CS(=O)(=O)CCc1ccc(CC2(CNS(=O)(=O)c3ccc(Cl)cc3Cl)CCC2)cc1 [Example 27, 2,4-dichloro-N-[(1-{4-[2-(methylsulfonyl)ethyl]benzyl}cyclobutyl)methyl]benzenesulfonamide]	> 200	> 200	> 200	> 200	> 200	0.235	
CC[C@H](C)[C@H](NC(=O)[C@H](CCC(=O)OC)NC(=O)[C@@H](NC(=O)OCc1ccccc1)C(C)C)C(=O)N[C@@H](CC(=O)OC)C(=O)CF [z- VEID - fmk, z-VE(OMe)ID(OMe)-fmk, reference compound] (Cbz-VE(OMe)ID(OMe)-CH2F)							IC20 [3, 7]: 3 µM
CSCCc1ccc(CC2(CNS(=O)(=O)c3ccc(Cl)cc3Cl)CCC2)cc1 [Example 17, 2,4-dichloro-N-[(1-{4-[2-(methylthio)ethyl]benzyl}cyclobutyl)methyl]benzenesulfonamide]	> 200	> 200	> 200	> 200	> 200	0.214	
CC[C@H](C)[C@H](NC(=O)OCc1ccccc1)C(=O)N[C@@H](CCC(=O)OC)C(=O)N[C@H](C(=O)N[C@@H](CC(=O)OC)C(=O)CF)[C@@H](C)O [z- IETD - fmk, z-IE(OMe)TD(OMe)-fmk, reference compound] (Cbz-IE(OMe)TD(OMe)-CH2F)							IC20 [5, 7]: 1.5 µM; IC20 [6, 7]: 0.08 µM
O=S(=O)(NCC1(Cc2ccc(CCO)cc2)CCC1)c1c(F)c(F)c(F)c(F)c1F [Example 66]							IC50 [1, 8]: > 200 µM; IC50 [2, 9]: > 200 µM; IC50 [3, 10]: > 200 µM; IC50 [4, 11]: > 200 µM; IC50 [5, 12]: > 200 µM; IC50 [6, 13]: 0.393 µM
O=S(=O)(NCC1(Cc2ccc(CCO)cc2)CCCC1)c1ccc(Cl)cc1 [Example 33]							IC50 [1, 8]: > 200 µM; IC50 [2, 9]: > 200 µM; IC50 [3, 10]: > 200 µM; IC50 [4, 11]: > 200 µM; IC50 [5, 12]: > 200 µM; IC50 [6, 13]: 1.7 µM
COC(=O)C[C@H](NC(=O)[C@H](C)NC(=O)[C@@H](NC(=O)[C@H](CC(=O)OC)NC(=O)OCc1ccccc1)C(C)C)C(=O)CF [z- DVAD - fmk, reference compound] (Cbz-D(OMe)VAD(OMe)-CH2F)							IC20 [1, 7]: 3 µM
COC(=O)CC[C@H](NC(=O)[C@H](CC(C)C)NC(=O)OCc1ccccc1)C(=O)N[C@@H](Cc1c[nH]cn1)C(=O)N[C@@H](CC(=O)OC)C(=O)CF [z-LEHD - fmk, z-LE(OMe)HD(OMe)-fmk, reference compound] (Cbz-LE(OMe)HD(OMe)-CH2F)							IC20 [4, 7]: 0.2 µM

More lines, main results first:

IC50 [1] [µM]	IC50 [2] [µM]	IC50 [3] [µM]	IC50 [4] [µM]	IC50 [5] [µM]	IC50 [6] [µM]	Structure (SMILES)	other results
> 200	> 200	> 200	> 200	> 200	0.989	O=S(=O)(NCC1(Cc2ccc(CCO)cc2)CCC1)c1ccc(Cl)cc1 [Example 56]	
> 200	> 200	> 200	> 200	> 200	3.69	O=[N+]([O-])c1ccc(S(=O)(=O)NCC2(Cc3ccc(CCO)cc3)CCCC2)cc1 [Example 52]	
> 200	> 200	> 200	> 200	> 200	4.06	Cc1ccc(S(=O)(=O)NCC2(Cc3ccc(CCO)cc3)CCCC2)cc1 [Example 59]	
> 200	> 200	> 200	> 200	> 200	6.22	O=S(=O)(NCC1(Cc2ccc(CCO)cc2)CCCC1)c1cc(Cl)cc(Cl)c1 [Example 62]	
> 200	> 200	> 200	> 25	> 200	0.25	O=S(=O)(NCC1(Cc2ccc(CCO)cc2)CCCC1)c1ccc(Cl)c(C(F)(F)F)c1 [Example 65]	
> 200	> 200	> 200	> 200	> 200	6.56	Cc1cccc(S(=O)(=O)NCC2(Cc3ccc(CCO)cc3)CCCC2)c1 [Example 63]	
> 200	> 200	> 200	46.7	> 200	0.143	O=S(=O)(NCC1(Cc2ccc(CCO)cc2)CCCC1)c1c(F)c(F)c(F)c(F)c1F [Example 58]	
> 200	> 200	> 200	> 200	> 200	0.281	O=S(=O)(NCC1(Cc2ccc(CCO)cc2)CCCC1)c1ccc2ccccc2c1 [Example 51]	
> 200	> 200	> 200	> 200	> 200	0.297	O=S(=O)(NCC1(Cc2ccc(CCO)cc2)CCCC1)c1ccc(Cl)c(Cl)c1 [Example 45]	
> 200	> 200	> 200	> 200	> 200	0.179	O=S(=O)(NCC1(Cc2ccc(CCO)cc2)CCCC1)c1ccc(Cl)cc1Cl [Example 46]	
> 200	> 200	> 200	> 200	> 200	9.66	CS(=O)(=O)c1ccc(S(=O)(=O)NCC2(Cc3ccc(CCO)cc3)CCCC2)cc1 [Example 36]	
> 200	> 200	> 200	> 200	> 200	5.12	CSc1ccc(S(=O)(=O)NCC2(Cc3ccc(CCO)cc3)CCCC2)cc1 [Example 43]	
> 200	> 200	> 200	> 200	> 200	3.05	Cc1ccc(S(=O)(=O)NCC2(Cc3ccc(CCO)cc3)CCC2)cc1 [Example 57]	
